Results on 1 compound are retold here after ChEMBL document CHEMBL1155404, “Synthesis, chiral resolution, and determination of novel furan lignan derivatives with potent anti-tumor activity” (Bioorg Med Chem Lett, 2010).

A short description of assay [1]: Antitumor activity against human QGY7701 cells by MTT assay. Format: functional, cell-based. (Tetrazolium dyes change colour on reduction, which living cells bring about.)
Assay [2] deals with HeLa. Put plainly: Antitumor activity against human HeLa cells by MTT assay. Format: functional, cell-based.

On to `O=c1[nH]cc(F)c(=O)[nH]1` [FLUOROURACIL], for which the figures for the half-inhibitory concentration (IC50) in assay [1] and in assay [2] were 67.2 µM and 64.2 µM, respectively.

By IC50 is commonly meant the concentration that inhibits the measured activity by half.
